Assay results as given in PMC11176637 (iScience, 2024).

Assays:
Assay type in all cases: cell-based
[1] = test system: VSVΔG-G (vesicular stomatitis virus glycoprotein); assay: microbe, parasite or virus in culture; settings: for IC50: Vesicular stomatitis virus, read-out: IC50, VSVΔG pseudotypes: G; for IC50 against VSVΔG-G: 0.3125–40 μM
[2] = test system: VSVΔG-Sδ (SARS-CoV-2 Delta S glycoprotein); assay: microbe, parasite or virus in culture; settings: for IC50: Severe acute respiratory syndrome coronavirus 2, read-out: IC50 against VSVΔG-Sδ
SARS-CoV-2 CH.1.1 = test system: SARS-CoV-2 CH.1.1
SARS-CoV-2 XBB.1.5 = test system: SARS-CoV-2 XBB.1.5
[3] = test system: VSVΔG-SM (MERS-CoV S glycoprotein); settings: 0.3125–40 μM
[4] = test system: VSVΔG-Sα (SARS-CoV-2 Alpha S glycoprotein); assay: microbe, parasite or virus in culture; settings: Severe acute respiratory syndrome coronavirus 2, read-out: IC50 against VSVΔG-Sα
[5] = test system: SARS-CoV-2 Delta (B.1.617.2)
[6] = test system: VSVΔG-Sο (SARS-CoV-2 Omicron S glycoprotein); assay: microbe, parasite or virus in culture; settings: Severe acute respiratory syndrome coronavirus 2, read-out: IC50 against VSVΔG-Sο

## Cc1cccc(NC(=O)C[S+]([O-])c2nc(-c3ccccc3)cn2-c2ccc(Cl)cc2)c1C (racemic) [PCM-0282478, 2-((1-(4-chlorophenyl)-4-phenyl-1H-imidazol-2-yl)sulfinyl)-N-(2,3-dimethylphenyl)acetamide]
[1]
  IC50: > 10 µM
[2]
  times more potent than synthesized PCM-0163855 against VSVΔG-Sδ: approximately 10 times
SARS-CoV-2 CH.1.1
  IC50, SARS-CoV-2: CH.1.1 viral replication: neither inhibited
SARS-CoV-2 XBB.1.5
  IC50, SARS-CoV-2: XBB.1.5 viral replication: neither inhibited

## CNC(=O)C(C#N)(Cc1cc(Cl)cc2c1OCOC2)Cc1cc(Cl)cc2c1OCOC2 [PCM-0068389, N-methyl3-(6-chloro-2,4-dihydro-1,3-benzodioxin-8-yl)-2-[(6-chloro-2,4-dihydro-1,3-benzodioxin-8-yl)methyl]-2-cyanopropionamide]
[1]
  IC50 against VSVΔG-G: some activity
[3]
  IC50 against VSVΔG-SM: lost all activity

## N=C(N)Nc1ccc(C(=O)Oc2ccc3cc(C(=N)N)ccc3c2)cc1 [PCM-0095060, 6-amidino-2-naphthyl p-guanidinobenzoate, reference compound]
[1]
  IC50 against VSVΔG-G: no significant activity
[2]
  IC50: 0.31 µM
[4]
  IC50: 0.92 µM
[5]
  inhibition of bona fide SARS-CoV-2 Delta virus replication: failed to inhibit

## Cc1cccc(NC(=O)CS(=O)(=O)c2nc(-c3ccccc3)cn2-c2ccc(Cl)cc2)c1C [PCM-0163855, 2-((1-(4-chlorophenyl)-4-phenyl-1H-imidazol-2-yl)sulfonyl)-N-(2,3-dimethylphenyl)acetamide]
[1]
  IC50: > 10 µM
[6]
  IC50: 41.2 µM
[2]
  IC50: 0.45 µM
SARS-CoV-2 CH.1.1
  IC50, SARS-CoV-2: CH.1.1 viral replication: neither inhibited
[4]
  IC50: 0.37 µM
[3]
  IC50 against VSVΔG-SM: inactive
SARS-CoV-2 XBB.1.5
  IC50, SARS-CoV-2: XBB.1.5 viral replication: neither inhibited

## COc1ccc2cc3c(N)nn(C(=O)Cc4c[nH]c5ccccc45)c3nc2c1 [PCM-0166392, 1-{6-amino-12-methoxy-2,4,5-triazatricyclo[7.4.0.0³,⁷]trideca-1,3(7),5,8,10,12-hexaen-4-yl}-2-(3-indolyl)-1-ethanone]
[3]
  IC50 against VSVΔG-SM: not selective

## Nc1nc(Nc2ccccc2)sc1C(=O)c1ccccc1Cl [PCM-0179622, (4-amino-2-anilino-1,3-thiazol-5-yl)(o-chlorophenyl)methanone]
[3]
  IC50 against VSVΔG-SM: not selective
